Laboratory results taken from PubChem BioAssay AID248 (DTP/NCI, 2004).
Values joined by “and” are separate entries in the source; they are usually repeats but may differ in a detail not shown here. Equal entries are not always repeated. Toxic doses and inconclusive results are not listed. Cut-off read from the data, not from the text of the source: active = T/C of 150% or more; inactive = T/C below 125%.

Test system: L1210 leukemia ip in BDF1 mice, survival T/C
Assay: NCI In Vivo Anticancer Drug Screen. Data for tumor model L1210 Leukemia (intraperitoneal) in B6D2F1 (BDF1) mice
Details: endpoint: mean survival time, higher = longer survival
Method in brief: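 Transplanted-tumor mice were given test agent; controls received vehicle only. Survival readings from the two groups were divided (treated over control).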

[1] = dose: 6.0 mg/kg/injection, schedule: Q01DX009 (ip), vehicle: Klucel (hydroxypropylcellulose) (HPC)
[2] = dose: 12.5 mg/kg/injection, schedule: Q01DX009 (ip), vehicle: saline
[3] = dose: 25.0 mg/kg/injection, schedule: Q01DX009 (ip), vehicle: saline
[4] = dose: 100.0 mg/kg/injection, schedule: Q01DX001 (ip), vehicle: saline
[5] = dose: 150.0 mg/kg/injection, schedule: Q01DX001 (ip), vehicle: saline
[6] = dose: 75.0 mg/kg/injection, schedule: Q01DX001 (ip), vehicle: saline
[7] = dose: 25.0 mg/kg/injection, schedule: Q01DX009 (ip), vehicle: Klucel (hydroxypropylcellulose) (HPC)
[8] = dose: 50.0 mg/kg/injection, schedule: Q01DX009 (ip), vehicle: Klucel (hydroxypropylcellulose) (HPC)
[9] = dose: 100.0 mg/kg/injection, schedule: Q01DX009 (ip), vehicle: Klucel (hydroxypropylcellulose) (HPC)
[10] = dose: 100.0 mg/kg/injection, schedule: Q04DX003 (ip), vehicle: Klucel (hydroxypropylcellulose) (HPC)
[11] = dose: 200.0 mg/kg/injection, schedule: Q04DX003 (ip), vehicle: Klucel (hydroxypropylcellulose) (HPC)
[12] = dose: 50.0 mg/kg/injection, schedule: Q01DX009 (ip), vehicle: saline
[13] = dose: 100.0 mg/kg/injection, schedule: Q04DX003 (ip), vehicle: saline

Measured: T/C

COc1cc([C@@H]2c3cc4c(cc3[C@H](O)[C@H]3COC(=O)[C@@H]23)OCO4)cc(OC)c1OC
inactive: [1] 88 % of control | dose: 6.25 mg/kg/injection, schedule: Q01DX009 (ip), vehicle: saline 105 % of control | dose: 7.0 mg/kg/injection, schedule: Q01DX Z (ip), vehicle: methylcellulose (MC) 100 % of control | dose: 11.0 mg/kg/injection, schedule: Q01DX Z (ip), vehicle: methylcellulose (MC) 112 % of control | dose: 12.0 mg/kg/injection, schedule: Q01DX009 (ip), vehicle: Klucel (hydroxypropylcellulose) (HPC) 95 % of control | [2] 107 % of control | dose: 15.0 mg/kg/injection, schedule: Q01DX Z (ip), vehicle: methylcellulose (MC) 116 % of control | dose: 15.0 mg/kg/injection, schedule: Q04DX003 (ip), vehicle: Klucel (hydroxypropylcellulose) (HPC) 107 % of control | dose: 16.0 mg/kg/injection, schedule: Q01DX Z (ip), vehicle: methylcellulose (MC) 120 % of control | dose: 24.0 mg/kg/injection, schedule: Q01DX009 (ip), vehicle: Klucel (hydroxypropylcellulose) (HPC) 101 % of control | dose: 24.0 mg/kg/injection, schedule: Q01DX Z (ip), vehicle: methylcellulose (MC) 88 % of control | [3] 113 % of control | dose: 30.0 mg/kg/injection, schedule: Q01DX Z (ip), vehicle: methylcellulose (MC) 101 % of control | dose: 30.0 mg/kg/injection, schedule: Q04DX003 (ip), vehicle: Klucel (hydroxypropylcellulose) (HPC) 96 % of control | dose: 37.5 mg/kg/injection, schedule: Q04DX003 (ip), vehicle: Klucel (hydroxypropylcellulose) (HPC) 97 % of control | dose: 45.0 mg/kg/injection, schedule: Q01DX001 (ip), vehicle: saline 94 % of control and 102 % of control | dose: 48.0 mg/kg/injection, schedule: Q01DX009 (ip), vehicle: Klucel (hydroxypropylcellulose) (HPC) 120 % of control | dose: 50.0 mg/kg/injection, schedule: Q01DX001 (ip), vehicle: carboxymethylcellulose (CMC) 107 % of control | dose: 60.0 mg/kg/injection, schedule: Q04DX003 (ip), vehicle: Klucel (hydroxypropylcellulose) (HPC) 100 % of control | dose: 65.0 mg/kg/injection, schedule: Q01DX001 (ip), vehicle: saline 96 % of control and 124 % of control | dose: 75.0 mg/kg/injection, schedule: Q01DX009 (ip), vehicle: saline 92 % of control | dose: 75.0 mg/kg/injection, schedule: Q04DX003 (ip), vehicle: Klucel (hydroxypropylcellulose) (HPC) 114 % of control | dose: 100.0 mg/kg/injection, schedule: Q01DX001 (ip), vehicle: carboxymethylcellulose (CMC) 105 % of control | [4] 96 % of control | dose: 120.0 mg/kg/injection, schedule: Q04DX003 (ip), vehicle: Klucel (hydroxypropylcellulose) (HPC) 104 % of control | [5] 93 % of control and 107 % of control | dose: 150.0 mg/kg/injection, schedule: Q04DX003 (ip), vehicle: Klucel (hydroxypropylcellulose) (HPC) 111 % of control | dose: 200.0 mg/kg/injection, schedule: Q01DX001 (ip), vehicle: carboxymethylcellulose (CMC) 110 % of control | dose: 240.0 mg/kg/injection, schedule: Q04DX003 (ip), vehicle: Klucel (hydroxypropylcellulose) (HPC) 91 % of control | dose: 300.0 mg/kg/injection, schedule: Q04DX003 (ip), vehicle: Klucel (hydroxypropylcellulose) (HPC) 100 % of control | dose: 400.0 mg/kg/injection, schedule: Q01DX001 (ip), vehicle: carboxymethylcellulose (CMC) 102 % of control

Cc1c(Cl)cccc1N=C=S
inactive: [6] 95 % of control | [5] 97 % of control | dose: 300.0 mg/kg/injection, schedule: Q01DX001 (ip), vehicle: saline 100 % of control

Cc1cccc(C)c1NC(=O)c1c(Cl)c(Cl)c(Cl)c(Cl)c1C(=O)O
inactive: [7] 95 % of control | [8] 87 % of control | [9] 94 % of control and 88 % of control | [10] 102 % of control | [11] 102 % of control | dose: 400.0 mg/kg/injection, schedule: Q04DX003 (ip), vehicle: Klucel (hydroxypropylcellulose) (HPC) 107 % of control

c1ccc2c(c1)ccc1c[s+]ccc12
inactive: dose: 100.0 mg/kg/injection, schedule: Q04DX003 (ip), vehicle: acetone 103 % of control | dose: 200.0 mg/kg/injection, schedule: Q04DX003 (ip), vehicle: acetone 103 % of control

CCNC(=S)C(=S)NCC
inactive: dose: 3.0 mg/kg/injection, schedule: Q01DX009 (ip), vehicle: Klucel (hydroxypropylcellulose) (HPC) 92 % of control | dose: 3.12 mg/kg/injection, schedule: Q04DX003 (ip), vehicle: Klucel (hydroxypropylcellulose) (HPC) 100 % of control | [1] 97 % of control | dose: 6.25 mg/kg/injection, schedule: Q04DX003 (ip), vehicle: Klucel (hydroxypropylcellulose) (HPC) 104 % of control | dose: 12.5 mg/kg/injection, schedule: Q04DX003 (ip), vehicle: Klucel (hydroxypropylcellulose) (HPC) 98 % of control and 106 % of control

C[N+](C)(C)/N=C\C1CC=CCC1 (configuration not stated)
inactive: [2] 99 % of control | [3] 96 % of control | [12] 99 % of control and 105 % of control

COCC(O)CN1CCN(c2ccccc2C)CC1 (configuration not stated)
inactive: [3] 108 % of control | [12] 93 % of control | dose: 100.0 mg/kg/injection, schedule: Q01DX009 (ip), vehicle: saline 100 % of control

N#Cc1cnn(C(N)=S)c1N
inactive: [3] 88 % of control | dose: 25.0 mg/kg/injection, schedule: Q04DX003 (ip), vehicle: saline 94 % of control | [12] 97 % of control | dose: 50.0 mg/kg/injection, schedule: Q04DX003 (ip), vehicle: saline 110 % of control | [13] 98 % of control

CC(=O)OC1CC2CCC3C4CC=C(C(C)=O)C4(C)CCC3C2(C)CC1OC(C)=O (configuration not stated)
inactive: dose: 75.0 mg/kg/injection, schedule: Q04DX003 (ip), vehicle: other 97 % of control | dose: 150.0 mg/kg/injection, schedule: Q04DX003 (ip), vehicle: other 97 % of control | dose: 300.0 mg/kg/injection, schedule: Q04DX003 (ip), vehicle: other 94 % of control

CC(O)C[As](=O)(O)c1ccccc1 (configuration not stated)
inactive: dose: 12.5 mg/kg/injection, schedule: Q04DX002 (ip), vehicle: saline 103 % of control | dose: 25.0 mg/kg/injection, schedule: Q04DX002 (ip), vehicle: saline 100 % of control

CSC(CC(=O)O)C(=O)O (configuration not stated)
inactive: [6] 97 % of control | [5] 108 % of control

N#CCN1Cc2ccccc2CCc2ccccc2C1
inactive: [8] 103 % of control | [9] 108 % of control | [10] 100 % of control | dose: 200.0 mg/kg/injection, schedule: Q01DX009 (ip), vehicle: Klucel (hydroxypropylcellulose) (HPC) 107 % of control | [11] 96 % of control

CC1(C)N=C(N)N=C(N)N1c1ccccc1I
inactive: dose: 12.5 mg/kg/injection, schedule: Q01DX009 (ip), vehicle: Klucel (hydroxypropylcellulose) (HPC) 100 % of control | [7] 110 % of control | [8] 97 % of control

O=C(COc1ccc2ccccc2c1)Nc1ccc[n+](Cc2ccc(S(=O)(=O)F)cc2)c1
inactive: [13] 106 % of control | dose: 200.0 mg/kg/injection, schedule: Q04DX003 (ip), vehicle: saline 90 % of control | dose: 400.0 mg/kg/injection, schedule: Q04DX003 (ip), vehicle: saline 94 % of control

CC(C)(C)NC(=O)NCc1cccc2ccccc12
inactive: dose: 100.0 mg/kg/injection, schedule: Q01DX009 (ip), vehicle: other 103 % of control | dose: 200.0 mg/kg/injection, schedule: Q01DX009 (ip), vehicle: other 95 % of control | dose: 400.0 mg/kg/injection, schedule: Q01DX009 (ip), vehicle: other 90 % of control

C[Si](C)(C)C(c1ccccc1)(c1ccccc1)c1ccccc1
inactive: dose: 25.6 mg/kg/injection, schedule: Q04DX002 (ip), vehicle: saline with Tween-80 101 % of control | dose: 64.0 mg/kg/injection, schedule: Q04DX002 (ip), vehicle: saline with Tween-80 90 % of control | dose: 200.0 mg/kg/injection, schedule: Q04DX003 (ip), vehicle: saline with Tween-80 87 % of control | dose: 400.0 mg/kg/injection, schedule: Q04DX002 (ip), vehicle: saline with Tween-80 90 % of control | dose: 400.0 mg/kg/injection, schedule: Q04DX003 (ip), vehicle: saline with Tween-80 88 % of control

COS(=O)(=O)c1ccc([N+](=O)[O-])cc1[N+](=O)[O-]
inactive: [4] 100 % of control | dose: 200.0 mg/kg/injection, schedule: Q01DX001 (ip), vehicle: saline 94 % of control | dose: 400.0 mg/kg/injection, schedule: Q01DX001 (ip), vehicle: saline 91 % of control
